Source: patent publication US4284633A, “Derivatives of xanthine” (Boehringer Mannheim GmbH, priority 1979, dated 1981)

Tested on: antigen induced bronchospasm
Assay: inhibition of antigen induced bronchospasm in passively sensitized guinea pigs
Assay type: in vivo, guinea pig
Conditions: 5 minutes before antigen, evaluated 3 minutes after antigen
Method: Specifically, tests were run as follows:
The antigen is twice recrystallized egg albumin.
The animals were bled and the pooled serum stored at -20° C.
Injections of 0.5 ml antiserum of 1:50 dilution were given i.v. 24-48 h before challenge.
Guinea pigs were anaesthetized with pentobarbital sodium (40 mg/kg i.p.). Cannulae were tied into the trachea and the jugular vein and the lung inflated with a pump at a rate of 72 strokes/min and a constant stroke volume of 6-8 ml.
Bronchospasm, provoked by injecting ovalbumin i.v. was measured as described by Konzett, H. and R. Rossler, "Versuchsanordnung und Untersuchungen an der Bronchialmuskulatur" Naunyn-Schmiedebergs, Arch. exp. Path. Pharmak.
The drugs were applied intravenously 5 minutes before the antigen.
For calculation the following formula was used: [formula] b=Bronchospasm after antigen injection, measured in mm from tracing m=maximum height of tracing in mm with arm of the treachea-cannula clamped
a=pre injection height of the tracing in mm

Compound	% inhibition Br Sp (antigen induced bronchospasm) (0.1 mg/kg i.v.) [%]	% inhibition Br Sp (antigen induced bronchospasm) (0.38 mg/kg i.v.) [%]	also measured
Cc1ccccc1C(=O)NC1CCN(CCCn2cnc3c2c(=O)n(C)c(=O)n3C)CC1 [Example 2d, 7-{3-[4-(2-methylbenzamido)-piperidino]-propyl}-theophylline]	60		
Cn1c(=O)c2[nH]cnc2n(C)c1=O [Aminophylline, reference compound]			% inhibition Br Sp (antigen induced bronchospasm) (24 mg/kg i.v.): 29%
CC(=O)NC1CCN(CCCn2cnc3c2c(=O)n(C)c(=O)n3C)CC1 [Example 2c, 7-[3-(4-acetamidopiperidino)-propyl]-theophylline]		37	
Cn1c(=O)c2c(ncn2CCCN2CCC(NC(=O)c3cccs3)CC2)n(C)c1=O [Example 4d, 7-{3-[4-(thiophene-2-carboxamido)-piperidino]-propyl}-theophylline]	38		
Cn1c(=O)c2c(ncn2CCCN2CCC(NC(=O)Cc3ccccc3)CC2)n(C)c1=O [Example 2e, 7-[3-(4-phenylacetamidopiperidino)-propyl]-theophylline]		68	
Cn1c(=O)c2c(ncn2CCCN2CCC(NC(=O)c3ccccc3O)CC2)n(C)c1=O [Example 4a, 7-{3-[4-(2-hydroxybenzamido)-piperidino]-propyl}-theophylline]	82		
